{
  "source": "patent US20140106342A1",
  "about": "“METHOD OF ASSAYING DNA TOPOISOMERASES AND DNA BINDING PROTEINS USING HIGH THROUGHPUT SCREENING” (priority 2011, published 2014)",
  "key": {"human Topo I [1]": {"molecular_target": "T1, human Topo I (Homo sapiens, UniProt P11387)", "T1 sequence (P11387 1-765)": "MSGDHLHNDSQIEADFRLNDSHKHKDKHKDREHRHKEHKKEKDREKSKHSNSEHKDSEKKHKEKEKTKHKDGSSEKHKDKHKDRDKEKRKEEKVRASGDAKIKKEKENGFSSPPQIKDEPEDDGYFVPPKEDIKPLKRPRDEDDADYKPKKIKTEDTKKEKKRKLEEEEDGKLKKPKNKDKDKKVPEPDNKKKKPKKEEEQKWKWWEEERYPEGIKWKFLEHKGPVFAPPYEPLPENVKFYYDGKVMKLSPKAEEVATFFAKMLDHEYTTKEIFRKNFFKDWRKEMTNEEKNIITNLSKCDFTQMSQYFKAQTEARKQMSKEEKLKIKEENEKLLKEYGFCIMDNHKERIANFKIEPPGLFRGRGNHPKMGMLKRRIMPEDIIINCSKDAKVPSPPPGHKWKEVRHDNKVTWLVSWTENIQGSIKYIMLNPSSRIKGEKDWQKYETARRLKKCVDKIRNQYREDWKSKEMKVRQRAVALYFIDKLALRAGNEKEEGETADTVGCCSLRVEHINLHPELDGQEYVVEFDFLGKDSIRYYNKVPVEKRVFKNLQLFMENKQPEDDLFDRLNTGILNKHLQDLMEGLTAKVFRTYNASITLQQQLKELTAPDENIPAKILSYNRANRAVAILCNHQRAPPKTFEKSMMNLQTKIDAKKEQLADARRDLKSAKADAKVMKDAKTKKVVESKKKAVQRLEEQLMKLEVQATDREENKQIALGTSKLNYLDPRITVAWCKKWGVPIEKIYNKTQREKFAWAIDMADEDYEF", "assay": "Topo I cleavage complex formation / liquid reactions analysed on agarose-ethidium bromide gel"}, "human Topo I [2]": {"molecular_target": "T1, human Topo I", "assay": "Solid phase topo I HTS assay (His-tag topo I on nickel coated plates, pHOT1 DNA retention by Picogreen fluorescence)", "type": "biochemical", "parameters": "The intact human topo I gene was cloned as a His-tag gene; purchased TopoGEN, Inc. (Port Orange, Fla.); host or cells: baculovirus-infected Spodoptera frugiperda Sf9 cells", "conditions": "for fold increase in DNA binding to wells due to CPT: 96 well", "protocol": "FIG. 8 is a flowchart depicting the model for solid phase Topo I screening. […] Free enzyme is washed out and pHOT1 supercoiled DNA is added in a topo I assay buffer. […] Free DNA is then washed out and the relative fluorescence is measured using Picogreen staining. […] The results are expressed as an “HTS Ratio” corresponding to the RFU of experimental to RFU of negative controls (no CPT).\nThe unbound enzyme was removed by aspirating off the initial binding solution followed by three washes (about 200 uL each) with cold PBS containing about 0.05% Tween-20 (PBS-T). […] Drugs were dissolved in DMSO and the final DMSO concentration in the reaction never exceeded about 1%. Reactions were incubated for about 1 hr at about 37° C. and terminated by the addition of about 0.1 vol of about 1% SDS (vol:vol) followed by a about 5 min incubation at about 37° C. The reaction mixture was next aspirated and washed three times with about 200 uL PBS-T. Picogreen (about 100 ug/mL) was diluted in TE (about 1:400) and about 200 µl was added to each well followed by incubation in the dark for about 5 min. The relative fluorescence was measured at about 485 nm excitation and about 525 nm emission wavelength using a Tecan reader.\nIn step 5, the readout (relative fluorescent units or RFU retained in the wells) is analyzed based on what is referred to as the ‘HTS Ratio’ (RFU Experimental/RFU in negative control).\nFree enzyme is washed out and pHOT1 supercoiled DNA is added in a topo I assay buffer. […] Free DNA is then washed out and the relative fluorescence is measured using Picogreen staining. […] The results are expressed as an “HTS Ratio” corresponding to the RFU of experimental to RFU of negative controls (no CPT)."}, "Y723F topo I mutant": {"molecular_target": "T2, Y723F topo I mutant (Homo sapiens, UniProt P11387, Y723F)", "T2 construct": "purchased TopoGEN, Inc. (Port Orange, Fla.); host or cells: baculovirus expression (Sf9)", "T2 sequence (P11387 1-765 Y723F)": "T1 sequence (P11387 1-765) with Y723F", "assay": "Solid phase assay with catalytically inactive Y723F topo I mutant", "type": "biochemical", "conditions": "highest input of protein", "protocol": "The unbound enzyme was removed by aspirating off the initial binding solution followed by three washes (about 200 uL each) with cold PBS containing about 0.05% Tween-20 (PBS-T). […] Drugs were dissolved in DMSO and the final DMSO concentration in the reaction never exceeded about 1%. Reactions were incubated for about 1 hr at about 37° C. and terminated by the addition of about 0.1 vol of about 1% SDS (vol:vol) followed by a about 5 min incubation at about 37° C."}, "pHOT1 DNA": {"system": "pHOT1 DNA", "assay": "Nicking of pHOT1 DNA in the absence of topo I", "protocol": ". This may explain why some bifunctional alkylators are picked up by the assay. […]. Thus, about 5 compounds out of about 50 scored as potential topo I IFP at about 100 uM input of purified test drug (single asterisk, FIG. 10). A relatively high input of test drug concentrations to amplify false positives was; however, in a typical HTS experiment the concentrations would be much lower and would detect far fewer false leads. […]."}, "[3]": {"conditions": "test drug about 100 uM, about 1.0 = minus CPT control, solid phase"}},
  "note": "Numbering of substitutions follows the chain as printed. Read-outs that look alike come from different tables or passages of the source. *1 amine or outer side, *2 acyl side, *3 side chain or, on linkers, in order; H or OH if unused. Where a SMILES comes first, the peptide text is derived from it. Bridges are numbered along the chain shown (N, C = ends). Roman numbers before positions name the chains, in order. [ ]: non-standard residue; d: D form. Actinocin(9to1) = Cc1c2oc3c(C)ccc(C(=O)[*:1])c3nc-2c(C(=O)[*:2])c(N)c1=O; NMeV = CN[C@H](C(=O)O)C(C)C; Sar = CNCC(=O)O",
  "data": [
    {"smiles": "CC[C@@]1(O)C(=O)OCc2c1cc1n(c2=O)Cc2cc3ccccc3nc2-1", "note": "[CPT, Camptothecin]", "values": [
      {"measurement": "time for CPT induced complexes to reach a maximal stoichiometric value", "setting": "human Topo I [1]; in solution", "value": "within a few minutes"},
      {"measurement": "magnitude of the increase in +CPT controls", "setting": "human Topo I [2]; 96 well format (comparison)", "value": "about 2.6 fold"},
      {"measurement": "magnitude of the increase in +CPT controls", "setting": "human Topo I [2]; 384 well format", "value": "about 1.7 fold"},
      {"measurement": "fraction of well-bound DNA that is nicked form II", "setting": "human Topo I [2]; CPT reactions, about 512 units topo I, about 5 uM CPT, no-CPT about 20%", "value": "about 70%"},
      {"measurement": "fraction of well-bound DNA that is relaxed (Ir)", "setting": "human Topo I [2]; CPT reactions, about 512 units topo I, about 5 uM CPT, no-CPT about 80%", "value": "about 30%"},
      {"measurement": "drug concentration dependency of solid phase readout", "setting": "human Topo I [2]; CPT titration, about 512 units topo I, about 100 ng DNA", "value": "did not display drug concentration dependency"},
      {"measurement": "magnitude of the increase in form II DNA in +CPT wells over no drug controls", "setting": "human Topo I [2]; DNA recovered from wells, gel analysis", "value": "2-3 fold"},
      {"measurement": "fold increase in DNA binding to wells due to CPT", "setting": "human Topo I [2]; about 16-64 units topo I, about 5 uM CPT", "value": "1.2-2 fold"},
      {"measurement": "fold increase in DNA binding to wells due to CPT", "setting": "human Topo I [2]; about >100 units topo I, about 5 uM CPT", "value": "2.5-2.7 fold"},
      {"measurement": "mean relative fluorescence, +CPT", "setting": "human Topo I [2]; high topo I inputs (about 1024, about 512 units), SD +/- about 153, -CPT mean about 1181", "value": "about 2877"},
      {"measurement": "time course of CPT induced complexes", "setting": "human Topo I [2]; solid phase", "value": "continue to accumulate over several hours"},
      {"measurement": "relative fluorescence (RFU) of a typical reaction, + control", "setting": "human Topo I [2]; typical reaction, - control about 2000", "value": "about 4000 fluorescent units"},
      {"measurement": "CPT stimulation of DNA binding with mutant protein", "setting": "Y723F topo I mutant", "value": "did not display any CPT stimulation"}
    ]},
    {"smiles": "Cc1c2oc3c(C)ccc(C(=O)N[C@@H]4C(=O)N[C@H](C(C)C)C(=O)N5CCC[C@H]5C(=O)N(C)CC(=O)N(C)[C@@H](C(C)C)C(=O)O[C@@H]4C)c3nc-2c(C(=O)N[C@@H]2C(=O)N[C@H](C(C)C)C(=O)N3CCC[C@H]3C(=O)N(C)CC(=O)N(C)[C@@H](C(C)C)C(=O)O[C@@H]2C)c(N)c1=O", "note": "[Dactinomycin] (I: T[dV]P[Sar][NMeV] / II: T[dV]P[Sar][NMeV]; ester I:1-I:C, II:1-II:C; linker I:N-II:N via Actinocin(9to1))", "values": [
      {"measurement": "HTS Ratio (RFU experimental / RFU negative control, no CPT)", "setting": "human Topo I [2]; [3]", "value": "about 1.4"}
    ]},
    {"smiles": "CCc1c2c(nc3ccc(OC(=O)N4CCC(N5CCCCC5)CC4)cc13)-c1cc3c(c(=O)n1C2)COC(=O)[C@]3(O)CC", "note": "[Irinotecan]", "values": [
      {"measurement": "HTS Ratio (RFU experimental / RFU negative control, no CPT)", "setting": "human Topo I [2]; [3]", "value": "about 1.4"}
    ]},
    {"smiles": "N[C@@H](Cc1ccc(N(CCCl)CCCl)cc1)C(=O)O", "note": "[Melphalan]", "values": [
      {"measurement": "HTS Ratio (RFU experimental / RFU negative control, no CPT)", "setting": "human Topo I [2]; [3]", "value": "1.2-1.3"}
    ]},
    {"smiles": "CNNCc1ccc(C(=O)NC(C)C)cc1", "note": "[Procarbazine]", "values": [
      {"measurement": "HTS Ratio (RFU experimental / RFU negative control, no CPT)", "setting": "human Topo I [2]; [3]", "value": "about 1.65"}
    ]},
    {"smiles": "O=C(c1ccc(OCCN2CCCCC2)cc1)c1c(-c2ccc(O)cc2)sc2cc(O)ccc12", "note": "[Raloxifene]", "values": [
      {"measurement": "HTS Ratio (RFU experimental / RFU negative control, no CPT)", "setting": "human Topo I [2]; test drug about 100 uM, about 1.0 = minus CPT control, solid phase, listed as Reloxifene", "value": "about 2.0"}
    ]},
    {"smiles": "CC/C(=C(\\c1ccccc1)c1ccc(OCCN(C)C)cc1)c1ccccc1", "note": "[Tamoxifen]", "values": [
      {"measurement": "induction of topo I cleavages", "setting": "human Topo I [1]; data not shown, less than with CPT", "value": "induced topo I cleavages"}
    ]},
    {"smiles": "Oc1ncc(N(CCCl)CCCl)c(O)n1", "note": "[Uracil mustard]", "values": [
      {"measurement": "HTS Ratio (RFU experimental / RFU negative control, no CPT)", "setting": "human Topo I [2]", "value": "about 1.1"},
      {"measurement": "single strand DNA nicks in pHOT1 DNA", "setting": "pHOT1 DNA", "value": "induce single strand DNA nicks"}
    ]},
    {"smiles": "O=C1c2c(O)ccc(O)c2C(=O)c2c(NCCNCCO)ccc(NCCNCCO)c21", "note": "[mitoxantrone]", "values": [
      {"measurement": "effect on DNA binding to bound topo I", "setting": "human Topo I [2]; solid phase HTS", "value": "strongly reduce DNA binding"}
    ]}
  ]
}
